We go through 17 compounds from PMC6269003, “Two New Coumarins from Micromelum falcatum with Cytotoxicity and Brine Shrimp Larvae Toxicity” (Molecules, 2012).

≈ marks a conversion by molar mass, not a printed value. Some results are limits rather than exact numbers.

Series [1] relates to lung cancer (HvEvc) cell line. The series can be described thus: antiproliferative MTT assay, HvEvc. The conditions noted are these: MTT method, 72 h. The format is cell-based. How it is done:
(§1) Antiproliferative activities of compounds were evaluated by the MTT method using mammary cancer (F10) and lung cancer (HvEvc) cell lines. In MTT assay, the cell suspensions (200 μL) at a density of 1 × 10^5 cells mL^−1 were plated in 96-well microtiter plates and incubated for 24 h at 37 °C in a humidified incubator at 5% CO2. The tested compound solution (2 μL in DMSO) at different concentrations was added to each well and further incubated for 72 h in the same condition. Then, the MTT solution (50 μL) was added to each well and incubated for 4 h. The old medium (150 μL) containing MTT was then gently replaced by DMSO. Absorbance was then determined on a Spectra Max Plus plate reader at 490 nm.
Background: Tetrazolium assays rely on reduction of a dye to a coloured formazan, in cell work by metabolically active cells.

The nature of the next series: in vivo. The conditions noted are these: brine shrimp, in vivo, other: larvae exposed in sea water in 96 well plate, LC50 against brine shrimp larvae; 96 well plates assay. How it is done: (§2) According to the method described by Wanyoike, brine shrimp eggs (Ocean Star International, Inc., USA) were hatched in a large beaker containing natural sea water (South China Sea) and they were cultured at room temperature for 48 h. With the help of a light source, the larvae grouped together on one side of the vessel and were easily collected for the assay. […] Each test was processed in triplicate with approximate ten larvae. Brine shrimps were counted under a magnifying glass after 24 h of incubation and maintaining the 96 well plates under illumination. The controls were prepared in the same manner except that the test samples were omitted.

Another series deals with brine shrimp larvae. The series can be described thus: in vivo. As to conditions: for LC50 against brine shrimp larvae: 96 well plates assay; for LD50 (brine shrimp): brine shrimp larvae, 96 well plates, 24 h incubation. How it is done:
as §2

In series [2] the test system is mammary cancer (F10) cell line. The series can be described thus: antiproliferative MTT assay, F10. In kind it is cell-based. As to conditions: MTT method, 72 h. The protocol: as §1
The test system of series [3] is P-388 lymphocytic leukemia. Set-up: method as in PMID 490172. The conditions noted are these: mice, 10 mg/Kg; cited from earlier work.
A further series deals with Lewis lung carcinoma. Set-up: method as in PMID 490172. The conditions noted are these: mice, 1.25 mg/Kg; cited from earlier work.
On the set-up of series [4]: method as in PMID 10378778. As to conditions: cited from earlier work.
Series [5] concerns P-388 lymphocytic leukemia. Further details: method as in doi:10.1021/jo00150a028. As to conditions: in vitro; cited from earlier work.

Turning to `COc1ccc2ccc(=O)oc2c1/C=C/C(CO)COC(=O)CC(C)C` (stereo not shown) [Compound 1, 7-Methoxy-8-(2-hydroxmethyl-1-O-isovaleryl-4-butenyl)coumarin], the IC50 (usually the midpoint of a concentration-inhibition curve) in series [1] was found to be 35.7 µg/mL (≈ 99.1 µM). For the same compound, the LC50 (as a rule, the concentration that kills 50% of the test population) at 24 h in “in vivo” is 6.8 µg/mL (≈ 18.9 µM). Further, in the series with brine shrimp larvae, the “LC50 against brine shrimp larvae” value is < 10 µM and the “LD50 (brine shrimp)” value was found to be 6.8 µg/mL.

Turning to `C=C(C)C(OC1OC(CO)C(O)C(O)C1O)C(O)c1c(OC)ccc2ccc(=O)oc12` (stereo not drawn) [Compound 2, 7-Methoxy-8-(1-hydroxy-2-O-β-glucopyranosyl-3-methyl-4-butene-1-yl)coumarin], the IC50 was found to be 68.5 µg/mL (≈ 156 µM) in series [1] and 23.6 µg/mL (≈ 53.8 µM) in series [2]. Also, the LC50 at 24 h in “in vivo” was < 500 µg/mL. Also, the “LD50 (brine shrimp)” value with brine shrimp larvae was 29.1 µg/mL.

Turning to `COc1cc2oc(=O)ccc2cc1C=O` [Compound 4, 6-formyl-7-methoxycoumarin], the “LD50 (brine shrimp)” value in the series with brine shrimp larvae is >500 µg/mL.

Turning to `COc1ccc2ccc(=O)oc2c1C(C=O)=C(C)C` [Compound 5, murralongin], the “LD50 (brine shrimp)” value in the series on brine shrimp larvae was >500 µg/mL.

In the case of `COc1ccc2ccc(=O)oc2c1/C=C/C(C)(C)O` [Compound 6, murraol], the “IC50 (HvEvc)” value in series [1] was determined as 172.5 µg/mL (≈ 663 µM). For the same compound, in the series on brine shrimp larvae, the “LC50 against brine shrimp larvae” value was < 500 µM and the “LD50 (brine shrimp)” value was determined as 199.3 µg/mL.

`C=C(C)C(CO)c1c(OC)ccc2ccc(=O)oc12` (stereo not shown) [Compound 10, isomurralonginol]: the “IC50 (HvEvc)” value in series [1] was 72.6 µg/mL (≈ 279 µM). Also, in the series with brine shrimp larvae, the “LC50 against brine shrimp larvae” value was < 500 µM and the “LD50 (brine shrimp)” value was 50.6 µg/mL.

In the case of `C=C(C)C(O)C(OC)c1c(OC)ccc2ccc(=O)oc12` (stereo not shown) [Compound 11, murracarpin], the “IC50 (HvEvc)” value in series [1] amounted to 124.3 µg/mL (≈ 428 µM). In the series with brine shrimp larvae, the “LC50 against brine shrimp larvae” value is < 500 µM and the “LD50 (brine shrimp)” value was 158.5 µg/mL.

Turning to `COc1cc2oc(=O)ccc2cc1[C@@H]1OC(=O)[C@@]2(C)O[C@@H]12` [micromelin], the T/C (commonly the ratio of treated to control) in series [3] is recorded as 149%; with Lewis lung carcinoma it was 228%.

As for `C=C(C)[C@H](O)[C@@H](O)c1c(OC)ccc2ccc(=O)oc12` [minumicrolin], the anti-tumor promoting activity result in series [4] is “valuable anti-tumor promoting agents”.

As for `C=C(C)[C@@H](O)[C@@H](O)c1c(OC)ccc2ccc(=O)oc12` [murrangatin], the anti-tumor promoting activity result in series [4] is recorded as “valuable anti-tumor promoting agents”.

On to (E)-osthenone [Compound 9], for which the “LD50 (brine shrimp)” value with brine shrimp larvae is >500 µg/mL.

Turning to arscotin [Compound 7], in the series with brine shrimp larvae, the “LC50 against brine shrimp larvae” value is < 500 µM and the “LD50 (brine shrimp)” value was 118.5 µg/mL.

For the compound methoxymicrominutinin [Compound 13], in the series on brine shrimp larvae, the “LD50 (brine shrimp)” value was >500 µg/mL.

As to microfalcatin isovalerate [Compound 14], the “IC50 (F10)” value in series [2] stood at 112.0 µg/mL.

As for microminutin [Compound 3], in the series on brine shrimp larvae, the “LC50 against brine shrimp larvae” value was < 500 µM and the “LD50 (brine shrimp)” value was found to be 107.3 µg/mL. The “IC50 (F10)” value in series [2] worked out at 82.9 µg/mL. Further, the ED50 in series [5] is 3.7 µg/mL.

With microminutinin [Compound 12], the “LD50 (brine shrimp)” value with brine shrimp larvae is >500 µg/mL.

As to murralonginol [Compound 8], the “LD50 (brine shrimp)” value in the series on brine shrimp larvae was >500 µg/mL.
